# Patent US8512964B2, “Targets for treatment of hypercholesterolemia” (The Regents of the University of California, priority 2008, dated 2013)
# Residues, ends and D or L forms follow the SMILES beside them. *: point of attachment. Cbz = O=C(OCc1ccccc1)*
# Columns and labels:
# LDLR [1] = assay: Immunoblot of LDLR protein in immortalized Lxrαβ(−/−) MEFs stably expressing LXRα or vector control; format: cell-based, mouse; conditions: Lxrαβ(−/−) MEFs with LXRα or vector control, sterol depletion medium, FIG. 1E
# Description: The cell lines HEK293T, HepG2, and SV589 were obtained from ATCC. HEK293T were cultured in Optimem containing 2% FBS. HepG2 and SV589 were cultured in DMEM supplemented with 10% FBS. immortalized Lxrαβ^(−/−) mouse embryonic fibroblasts (MEFs) were obtained by immortalizing E13.5 MEFs with a SV40 Large-T antigen retrovirus. To reconstitute mLxrα we transfected Phenix cells with pBabehygro or pBabehygro-mLxra. The resulting supernatant containing the corresponding retroviral particles was used to infect immortalized MEFs. Cells were selected in 800 μg/mL Hygromycin and surviving cells were used. HepG2-LDLR-GFP cells were generated by transfecting HepG2 cells with pEGFP-N1-LDLR and selecting cells with G418 (800 μg/mL).
# Primary hepatocytes were isolated and maintained as previously reported (Pei et al. (2006) Nat Med 12: 1048). HEK293T cells were transfected using lipofectamine2000 (invitrogen). […] Under these conditions more than 90% of the cells were transduced as assessed by GFP immunofluorescence. […]
# (§1) Total cell or tissue lysates were prepared in RIPA buffer (150 mM NaCl, 1% NP-40, 0.1% Sodium Deoxycholate, 0.1% SDS, 100 mM Tris-HCl, pH 7.4) supplemented with protease inhibitors (Roche Molecular Biochemicals). […] Protein concentration of the cleared lysates was determined using the Bradford assay (Biorad) with BSA as reference. […]
# HepG2 cells = assay: BODIPY-LDL binding and uptake assay in HepG2 cells; format: cell-based; conditions: 1 μM ligand, FIG. 1A
# Description: HepG2 cells were plated at density of 40,000 cells/well. On the following day the cells were pre-treated for 8 hrs with DMSO, 1 μM GW3965, or 1 μM T0901317 in DMEM supplemented with 10% FBS. MEFs (DKO-mLxra) were plated similarly and infected on the following day with the indicated adenovirus (MOI 300) for 18 hrs. Subsequently, cells were washed twice with PBS and incubated for an additional 16 hrs in sterol deficient medium to induce expression of the LDLR. In experiments with HepG2 cells the sterol deficient medium further contained the LXR synthetic ligands indicated above. Uptake was initiated by incubating cells in 200 μl of serum deficient medium containing 5 μg/mL of BODIPY-LDL. For measuring binding of BODIPY-LDL to cells, plates were placed on ice prior to processing. Uptake of BODIPY-LDL was measured after a 30 minute incubation period at 37° C. At that point cells were washed 2× with PBS containing 0.2% BSA and lysed in 100 μl RIPA buffer supplemented with protease inhibitors. Lysates were collected and cleared by centrifugation and 30 μl of cleared lysate was transferred into a 384 well plate and measured on a Typhoon apparatus (Amersham) with filters set for BODIPY. The protein concentration of the cleared lysates was determined and results are presented as relative fluorescence normalized for protein content.
# Mylip = Mylip expression in vivo after gavage of mice (realtime PCR); design: species or system mouse; conditions: mice gavaged 20 mg/kg twice daily for three days, FIG. 2C
# Description: Total RNA was isolated from cells and mouse tissues using Trizol (Invitrogen). One microgram of total RNA was reverse transcribed with random hexamers using iScript reverse transcription reagents kit (Biorad). Sybergreen (Diagenode) real-time quantitative PCR assays were performed using an Applied Biosystems 7900HT sequence detector.
# Mylip LXRE = assay: Mylip promoter (LXRE) reporter assay in HEK293 cells transfected with LXR and RXR; format: cell-based, mouse; conditions: activation by LXRa and GW3965, functional LXRE, FIG. 6D
# Description: A 10 Kb promotor region upstream of the mMylip transcription initiation site was analyzed for the presence of LXR binding elements. A consensus DR4 site was identified 2454 upstream of the transcription initiation site. Olignoucleotides encompassing this element were designed, annealed and tested for binding to LXR/RXR heterodimers in a standard EMSA assay. A 2.5 kB promotor fragment upstream of the transcription initiation site containing the identified LXRE was amplified by PCR from BAC clone RP23-17N24 using mMylip-prom-FWD […] (SEQ ID NO:20) or mMylip-prom-ΔFWD […] (SEQ ID NO:21) with the common antisense primer mMylip-prom-REV […] (SEQ ID NO:22). Amplified fragments were cloned as SacI/XhoI fragments into pGL3 basic (Promega). Promotor analysis was done as previously described (Joseph et al. (2002) J Biol Chem 277: 11019).
# LDLR [2] = assay: LDLR ubiquitination in HEK293 cells co-transfected with LDLR, Mylip and HA-Ubiquitin; format: cell-based; conditions: 25 μM for 6 h, FIG. 3G
# Description: Primary hepatocytes were isolated and maintained as previously reported (Pei et al. (2006) Nat Med 12: 1048). HEK293T cells were transfected using lipofectamine2000 (invitrogen). Typically, 0.8×10^6 cells were seeded in a 60 mm well and transfected the following day with 2 μg DNA. In experiments testing the ability of Mylip to degrade other potential protein targets a ratio of 3:1 (Mylip:target) was used. To infect MEFs and SV589 with adenovirus cells were seeded (0.2×10^6 cells/60 mm well) and infected the following day at an MOI of 300. HepG2 cells were infected at an MOI of 80. Primary hepatocytes were infected 4 hrs after plating at an MOI of 20. Infections were allowed to proceed for 18 hrs after which culture medium was replaced. Under these conditions more than 90% of the cells were transduced as assessed by GFP immunofluorescence. Where indicated, cells were subsequently sterol starved by incubating cells in DMEM supplemented with 10% LPDS, 5 μM Simvastatin, and 100 μM Mevalonic acid for an additional 18 hrs (sterol deficient medium).
# as §1
Compound,LDLR protein (LDLR [1]),binding and uptake of bodipy labeled-LDL (HepG2 cells),further results
CC(C)CC[C@@H](O)[C@@H](C)[C@H]1CC[C@H]2[C@@H]3CC=C4C[C@@H](O)CC[C@]4(C)[C@H]3CC[C@]12C [22(R)-hydroxycholesterol],decreased LDLR protein in the absence or presence of LXRs,–,–
O=C(O)Cc1cccc(OCCCN(Cc2cccc(C(F)(F)F)c2Cl)CC(c2ccccc2)c2ccccc2)c1 [GW3965],decreased LDLR only in cells expressing LXRα,decreased,Mylip expression in vivo (Mylip): induced; increase in reporter activity (Mylip LXRE): ~4 fold
CC(C)C[C@@H](C=O)NC(=O)[C@H](CC(C)C)NC(=O)[C@H](CC(C)C)NC(=O)OCc1ccccc1 [MG132] (Cbz-Leu-Leu-Leu-aldehyde),–,–,Mylip expression (LDLR [2]): greatly stabilizing; Mylip-dependent level of LDLR ubiquitination (LDLR [2]): did not increase
O=S(=O)(c1ccccc1)N(CC(F)(F)F)c1ccc(C(O)(C(F)(F)F)C(F)(F)F)cc1 [T0901317],–,decreased,–
